The values that follow come from patent US8119681B2, “2-[1-phenyl-5-hydroxy or methoxy-4alpha-methyl-hexahydrocyclopenta [ƒ]indazole-5-YL]ethyl phenyl derivatives as glucocorticoid receptor ligands” (Merck Sharp & Dohme Corp., priority 2006, dated 2012).

Molecules are shown by their SMILES. Where two headings read alike, the source gives them in different places.

This experiment addresses T1, human GR (Homo sapiens, UniProt P04150).
T1 sequence (P04150 1-777): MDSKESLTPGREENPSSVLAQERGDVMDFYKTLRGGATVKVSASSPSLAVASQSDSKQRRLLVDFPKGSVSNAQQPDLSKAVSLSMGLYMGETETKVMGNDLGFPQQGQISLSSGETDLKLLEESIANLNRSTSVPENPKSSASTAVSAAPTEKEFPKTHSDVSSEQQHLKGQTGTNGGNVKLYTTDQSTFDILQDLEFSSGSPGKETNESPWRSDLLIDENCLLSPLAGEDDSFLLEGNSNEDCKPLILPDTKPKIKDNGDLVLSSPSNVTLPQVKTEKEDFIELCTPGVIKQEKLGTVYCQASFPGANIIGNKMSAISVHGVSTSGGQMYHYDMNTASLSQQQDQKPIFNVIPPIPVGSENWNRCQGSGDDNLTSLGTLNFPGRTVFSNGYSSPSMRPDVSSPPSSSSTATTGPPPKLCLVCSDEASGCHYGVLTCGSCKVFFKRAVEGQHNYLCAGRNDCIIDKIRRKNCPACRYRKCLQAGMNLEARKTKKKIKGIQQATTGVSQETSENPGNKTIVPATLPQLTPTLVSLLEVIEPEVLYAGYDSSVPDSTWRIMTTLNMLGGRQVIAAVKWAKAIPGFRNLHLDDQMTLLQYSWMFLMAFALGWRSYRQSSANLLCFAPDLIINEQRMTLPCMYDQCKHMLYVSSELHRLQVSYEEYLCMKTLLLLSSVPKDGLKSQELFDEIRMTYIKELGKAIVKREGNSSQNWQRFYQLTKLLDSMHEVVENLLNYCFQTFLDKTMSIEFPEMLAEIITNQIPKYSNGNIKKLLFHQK
The experiment can be described thus: Transrepression Assay (GITAR), TNFα-β-lactamase reporter gene in U937 cells. In kind it is cell-based. Set-up: U937 cells contain an endogenous glucocorticoid receptor (GR); endogenous in cells; host or cells: U937 cells stably transfected with the TNF-α promoter/β-lactamase reporter only. The conditions noted are these: for EC50: IP = inflection point; for GITAR > GRAMM % SEP: separation of GITAR Emax over GRAMMER Emax; for Emax: U-937. The method, boiled down: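 Reporter readout used CCF2-AM loading for 70–90 min at room temperature after overnight (~18 h, 37 °C) PMA (5 ng/ml final) and LPS (100 ng/ml final) stimulation of compound-treated (30–45 min) TNFα-β-lactamase U937 cells expressing native GR. Activity was normalised to 100 nM dexamethasone repression.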
Background: In a reporter assay the amount or activity of a reporter protein is the signal.

[1] abbreviates: Table 1, U937 cells, read-out: Transrepression U937 Cells GITAR IP.
Setting [2] is: 100 nM dexamethasone = 100% activity, read-out: maximal activity in the transrepression assay.
Where [3] appears, read: Table 1, U937 cells, activity repressed by 100 nM dexamethasone = 100%, read-out: Transrepression U937 Cells GITAR Emax (%).
The mark [4] stands for this setting: Table 2, U937 cells, read-out: Transactiviation U937 Cells GITAR IP.
Where [5] appears, read: Table 2, U937 cells, activity repressed by 100 nM dexamethasone = 100%, read-out: Transactiviation U937 Cells GITAR Emax (%).

On to `C=CCNC(=O)c1ccccc1CC[C@]1(O)CCC2=Cc3c(cnn3-c3ccc(F)cc3)C[C@@]21C` [Example 33, N-allyl-2-{2-[(4αS,5R)-1-(4-fluorophenyl)-5-hydroxy-4α-methyl-1,4,4α,5,6,7-hexahydrocyclopenta[f]indazol-5-yl]ethyl}benzamide], for which, under setting [1], the EC50 worked out at 123 nM. For the same compound, the “GITAR > GRAMM % SEP” value (Table 1) was determined as 25%. The Emax was 5 to 100% under setting [2] and 62% under setting [3].
The like results for `CC1(NC(=O)c2ccccc2CC[C@]2(O)CCC3=Cc4c(cnn4-c4ccccc4)C[C@@]32C)CC1` [Example 34, 2-{2-[(4αS,5R)-5-hydroxy-4α-methyl-1-phenyl-1,4,4α,5,6,7-hexahydrocyclopenta[f]indazol-5-yl]ethyl}-N-(1-methylcyclopropyl)benzamide] were, in that order, 208 nM, 41%, 5 to 100% and 54%.
The like results for `CC(C)NC(=O)c1ccccc1CC[C@]1(O)CCC2=Cc3c(cnn3-c3ccc(F)cc3)C[C@@]21C` [Example 35, 2-{2-[(4αS,5R)-1-(4-fluorophenyl)-5-hydroxy-4α-methyl-1,4,4α,5,6,7-hexahydrocyclopenta[f]indazol-5-yl]ethyl}-N-isopropylbenzamide] were, in that order, 170 nM, 14%, 5 to 100% and 62%.
The like results for `C[C@]12Cc3cnn(-c4ccc(F)cc4)c3C=C1CC[C@@]2(O)CCc1ccccc1C(=O)NCC1CC1` [Example 37, N-(cyclopropylmethyl)-2-{2-[(4αS,5R)-1-(4-fluorophenyl)-5-hydroxy-4α-methyl-1,4,4α,5,6,7-hexahydrocyclopenta[r]indazol-5-yl]ethyl}benzamide] were, in that order, 81 nM, 1%, 5 to 100% and 58%.
As to `CC(CNC(=O)c1c(F)cccc1CC[C@]1(O)CCC2=Cc3c(cnn3-c3ccc(F)cc3)C[C@@]21C)C(F)(F)F` (stereo partly drawn) [Example 38, 2-fluoro-6-{2-[(4αS,5R)-1-(4-fluorophenyl)-5-hydroxy-4α-methyl-1,4,4α,5,6,7-hexahydrocyclopenta[f]indazol-5-yl]ethyl}-N-(3,3,3-trifluoro-2-methylpropyl)benzamide], under setting [1], the EC50 was determined as 152 nM. Besides, the “GITAR > GRAMM % SEP” value (Table 1) is on record as 44%. For the same compound, the Emax was 5 to 100% under setting [2] and 58% under setting [3].
As for `C[C@]12Cc3cnn(-c4ccc(F)cc4)c3C=C1CC[C@@]2(O)CCc1ccccc1Cl` [Example 40 WO 2004/075840 A2, reference compound], the EC50 under setting [4] stood at 212 nM. The “GITAR > GRAMM % SEP” value (Table 2) is given as −7%. For the same compound, the Emax under setting [5] was found to be 91%.
Take `C[C@]12Cc3cnn(-c4ccc(F)cc4)c3C=C1CC[C@@]2(O)CCc1ccccc1C(=O)N1CCC1` [Example 40, (4αS,5R)-5-{2-[2-(azetidin-1-ylcarbonyl)phenyl]ethyl}-1-(4-fluorophenyl)-4α-methyl-1,4,4α,5,6,7-hexahydrocyclopenta[f]indazol-5-ol]: the EC50 under setting [1] is 246 nM. In addition, the “GITAR > GRAMM % SEP” value (Table 1) is listed as 17%. The Emax is, setting by setting: under setting [2], 5 to 100%; under setting [3], 64%.
Consider `C[C@]12Cc3cnn(-c4ccc(F)cc4)c3C=C1CCC[C@@]2(O)CCc1ccccc1Cl` [Example 41 WO 2004/075840 A2, reference compound], for which the EC50 under setting [4] was determined as 270 nM. Moreover, the “GITAR > GRAMM % SEP” value (Table 2) is −3%. Moreover, under setting [5], the Emax was 88%.
On to `COC(=O)C(C)(C)NC(=O)c1c(F)cccc1CC[C@]1(O)CCC2=Cc3c(cnn3-c3ccc(F)cc3)C[C@@]21C` [Example 41, methyl N-(2-fluoro-6-{2-[(4αS,5R)-1-(4-fluorophenyl)-5-hydroxy-4α-methyl-1,4,4α,5,6,7-hexahydrocyclopenta[f]indazol-5-yl]ethyl}benzoyl)-2-methylalaninate], for which the EC50 under setting [1] amounted to 115 nM. For the same compound, the “GITAR > GRAMM % SEP” value (Table 1) is listed as 44%. Moreover, the Emax reads like this: under setting [2], 5 to 100%; under setting [3], 62%.
The like results for `C[C@]12Cc3cnn(-c4ccccc4)c3C=C1CC[C@@]2(O)CCc1ccccc1C(=O)NC1CC1` [Example 42, N-cyclopropyl-2-{2-[(4αS,5R)-5-hydroxy-4α-methyl-1-phenyl-1,4,4α,5,6,7-hexahydrocyclopenta[f]indazol-5-yl]ethyl}benzamide] were, in that order, 122 nM, 13%, 5 to 100% and 64%.
The like results for `C[C@]12Cc3cnn(-c4ccccc4)c3C=C1CC[C@@]2(O)CCc1ccccc1C(N)=O` [Example 43, 2-{2-[(4αS,5R)-5-hydroxy-4α-methyl-1-phenyl-1,4,4α,5,6,7-hexahydrocyclopenta[f]indazol-5-yl]ethyl}benzamide] were, in that order, 98 nM, 9%, 5 to 100% and 68%.
The matching figures for `C=C(C)CNC(=O)c1c(F)cccc1CC[C@]1(O)CCC2=Cc3c(cnn3-c3ccc(F)cc3)C[C@@]21C` [Example 44, 2-fluoro-6-{2-[(4αS,5R)-1-(4-fluorophenyl)-5-hydroxy-4α-methyl-1,4,4α,5,6,7-hexahydrocyclopenta[f]indazol-5-yl]ethyl}-N-(2-methylprop-2-en-1-yl)benzamide]: 119 nM, 43%, 5 to 100% and 67%.
Regarding `C[C@H](CNC(=O)c1ccccc1CC[C@]1(O)CCC2=Cc3c(cnn3-c3ccc(F)cc3)C[C@@]21C)C(F)(F)F` [Example 45, 2-{2-[(4αS,5R)-1-(4-fluorophenyl)-5-hydroxy-4α-methyl-1,4,4α,5,6,7-hexahydrocyclopenta[f]indazol-5-yl]ethyl}-N-[(2R)-3,3,3-trifluoro-2-methylpropyl]benzamide], the EC50 under setting [1] was 220 nM. The “GITAR > GRAMM % SEP” value (Table 1) is 52%. Moreover, the Emax is, setting by setting: under setting [2], 5 to 100%; under setting [3], 70%.
In the case of `C[C@]12Cc3cnn(-c4ccc(F)cc4)c3C=C1CC[C@@]2(O)CCc1ccc(F)cc1` [Example 46 WO 2004/075840 A2, reference compound], the EC50 under setting [4] came out at 596 nM. In addition, for the setting “Table 2”, the “GITAR > GRAMM % SEP” value came to 44%. For the same compound, under setting [5], the Emax worked out at 71%.
Consider `C[C@]12Cc3cnn(-c4ccc(F)cc4)c3C=C1CC[C@@]2(O)CCc1ccccc1C(=O)N1CCCCC1` [Example 46, (4αS,5R)-1-(4-fluorophenyl)-4α-methyl-5-{2-[2-(piperidin-1-ylcarbonyl)phenyl]ethyl}-1,4,4α,5,6,7-hexahydrocyclopenta[f]indazol-5-ol], for which the EC50 under setting [1] amounted to 248 nM. Under “Table 1”, the “GITAR > GRAMM % SEP” value stood at 17%. Further, the Emax is 5 to 100% under setting [2] and 70% under setting [3].
Regarding `C[C@]12Cc3cnn(-c4ccc(F)cc4)c3C=C1CC[C@@]2(O)CCc1ccccc1C(=O)N1CCCC1` [Example 47, (4αS,5R)-1-(4-fluorophenyl)-4α-methyl-5-{2-[2-(pyrrolidin-1-ylcarbonyl)phenyl]ethyl}-1,4,4α,5,6,7-hexahydrocyclopenta[f]indazol-5-ol], the EC50 under setting [1] came out at 205 nM. In addition, the “GITAR > GRAMM % SEP” value (Table 1) amounted to 12%. Moreover, the Emax under setting [2] lay in the range of 5 to 100% and the Emax under setting [3] amounted to 71%.
The matching figures for `CC(C)[C@@H](C)NC(=O)c1c(F)cccc1CC[C@]1(O)CCC2=Cc3c(cnn3-c3ccc(F)cc3)C[C@@]21C` [Example 48, N-[(1R)-1,2-dimethylpropyl]-2-fluoro-6-{2-[(4αS,5R)-1-(4-fluorophenyl)-5-hydroxy-4α-methyl-1,4,4α,5,6,7-hexahydrocyclopenta[f]indazol-5-yl]ethyl}benzamide]: 198 nM, 59%, 5 to 100% and 72%.
